The source of these data is paper PMC6664820, “Novel natural and synthetic inhibitors of solute carriers SGLT1 and SGLT2” (Pharmacology Research & Perspectives, 2019).

What is called IC50 is the concentration that gives 50% inhibition. In general, inhibition refers to the share of the control response that was lost under treatment.

The target in data set [1] is T1, SGLT1 (Homo sapiens, UniProt P13866).
T1 sequence (P13866 1-664): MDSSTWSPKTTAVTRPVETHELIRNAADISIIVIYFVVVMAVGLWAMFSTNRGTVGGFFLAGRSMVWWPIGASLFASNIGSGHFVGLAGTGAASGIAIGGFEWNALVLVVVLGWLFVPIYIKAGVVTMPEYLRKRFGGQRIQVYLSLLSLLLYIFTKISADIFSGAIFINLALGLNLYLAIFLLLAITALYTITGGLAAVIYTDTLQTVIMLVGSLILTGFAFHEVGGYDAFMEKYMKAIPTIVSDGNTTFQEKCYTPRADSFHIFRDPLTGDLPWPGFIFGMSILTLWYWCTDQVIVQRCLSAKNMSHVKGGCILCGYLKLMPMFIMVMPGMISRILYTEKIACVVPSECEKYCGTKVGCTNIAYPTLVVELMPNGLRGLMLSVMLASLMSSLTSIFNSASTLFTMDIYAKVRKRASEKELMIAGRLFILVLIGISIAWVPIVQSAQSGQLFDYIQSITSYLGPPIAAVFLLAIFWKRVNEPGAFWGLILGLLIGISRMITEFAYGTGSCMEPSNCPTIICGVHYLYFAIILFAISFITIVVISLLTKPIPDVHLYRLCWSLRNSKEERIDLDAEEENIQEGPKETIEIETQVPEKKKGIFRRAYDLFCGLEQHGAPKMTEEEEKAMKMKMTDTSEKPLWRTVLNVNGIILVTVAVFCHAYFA
In words: cell-based. Further details: host or cells: CHO-K1. Conditions: CHO, read-out: % of control remaining.

The target in data set [2] is T2, hSGLT2 (Homo sapiens, UniProt P31639).
T2 sequence (P31639 1-672): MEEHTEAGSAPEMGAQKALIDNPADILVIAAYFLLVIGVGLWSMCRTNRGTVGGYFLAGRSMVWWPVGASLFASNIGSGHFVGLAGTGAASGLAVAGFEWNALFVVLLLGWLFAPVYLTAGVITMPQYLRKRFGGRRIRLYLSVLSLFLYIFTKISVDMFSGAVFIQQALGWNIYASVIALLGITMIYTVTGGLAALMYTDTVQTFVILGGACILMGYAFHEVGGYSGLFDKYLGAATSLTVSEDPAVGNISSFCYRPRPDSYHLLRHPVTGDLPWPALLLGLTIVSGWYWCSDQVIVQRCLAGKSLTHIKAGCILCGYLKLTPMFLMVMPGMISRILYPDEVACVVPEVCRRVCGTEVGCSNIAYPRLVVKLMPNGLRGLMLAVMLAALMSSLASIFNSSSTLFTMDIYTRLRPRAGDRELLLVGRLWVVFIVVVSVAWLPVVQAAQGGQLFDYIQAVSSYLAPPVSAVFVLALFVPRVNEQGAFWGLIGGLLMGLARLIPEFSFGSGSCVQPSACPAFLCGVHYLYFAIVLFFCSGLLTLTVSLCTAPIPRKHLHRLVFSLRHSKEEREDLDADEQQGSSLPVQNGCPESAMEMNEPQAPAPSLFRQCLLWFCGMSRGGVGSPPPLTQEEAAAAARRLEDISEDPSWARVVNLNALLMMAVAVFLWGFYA
In words: cell-based. Further details: host or cells: CHO-K1. Conditions: CHO, read-out: % of control remaining.

The subject of another data set is CHO‐hSGLT1/2 cells. In words: Cytotoxicity assay (ToxiLight, adenylate kinase leakage into CHO‐SGLT1/2 inhibition assay media).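 Note: bioluminescent read-out of adenylate kinase released from lysed cells into the medium, given relative to DMSO vehicle control defined as 0%, higher meaning more cytolysis; percent of DMSO vehicle control bioluminescence with vehicle set at 0%.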 More on the design: CYTOTOXICITY / CY[…], mean / CYTOTOXICITY (% of vehicle control) Mean / CYTOTOXICITY, mean / CY[…] (% of vehicle control) Mean: dose or concentration left out as unconfirmed. The conditions noted are these: mean.
For data set [3], the target named is T1, SGLT1. In words: SGLT1 inhibition assay for validation of screening hits and similar compounds (1‐NBD‐glucose uptake, CHO‐hSGLT1 cells). In kind it is cell-based.
In data set [4] the target is T2, hSGLT2. In words: SGLT2 inhibition assay for validation of screening hits and similar compounds (1‐NBD‐glucose uptake, CHO‐hSGLT2 cells). In kind it is cell-based. The conditions noted are these: 1‐NBD‐glucose uptake, CHO‐hSGLT2; mean of n biological replicates, or individual measurements where n=2; read-out: SGLT2‐IC50 Mean.
Data set [5] has as its target T1, SGLT1. In words: Cellular uptake and transcellular transport of 14C‐α‐methylglucose by Caco‐2 cell monolayers. In kind it is cell-based. Further details: Caco‐2 cells expressing endogenous SGLT1; host or cells: Caco-2. The conditions noted are these: 90 minutes. On the procedure: Caco‐2 cells (passage numbers 7 and 13) were seeded (29,700 cells) onto polycarbonate Transwell® inserts (6.5 mm diameter and 3.0 μm pores) and cultured for 21‐24 days to obtain differentiated polarized monolayers. Apical and basal medium was refreshed twice a week and the final medium refresh was done the day before the uptake and transport experiment. TransEpithelial Electrical Resistance (TEER) was measured with an EVOM^2 epithelial voltmeter (World Precision Instruments, Sarasota, USA) and inserts were used if TEER > 3000 Ω/cm^2. First, cells were washed twice apically and basally with D‐glucose free DMEM. Then, 100 μL (+)‐pteryxin dilutions (50 μmol/L and 500 μmol/L), P p.‐extract dilutions (1/200 and 1/2000), or 0.5% (v/v) DMSO vehicle control were applied apical in D‐glucose free DMEM with 0.3% (w/v) BSA and 40 nCi/mL ^14C‐α‐methylglucose. The basal acceptor wells (24‐well) contained 350 μL D‐glucose free DMEM with 0.3% (w/v) BSA. Then, cells were incubated in a humidified incubator at 37°C with 5% CO2 for 90 minutes. Inserts were transferred to a clean 24‐well plate and washed once with DMEM (with D‐glucose) and once with HBSS, with 1 mL at the basal and 100 μL at the apical side. Cells were lysed with 100 μL of 0.2 mol/L NaOH for 30 minutes at 37°C and lysates were analyzed by liquid scintillation counting on a Tri‐Carb 2910 TR (Perkin Elmer, Groningen, The Netherlands) to determine cellular ^14C‐α‐methylglucose uptake. Basal media were analyzed accordingly to determine transcellular ^14C‐α‐methylglucose transport. Mean ± SD ^14C‐α‐methylglucose uptake and transport were calculated from two biological replicates, each consisting of four technical replicates.

Protocol for CHO‐hSGLT1/2 cells: The cytotoxicity of representative SGLT1/2 inhibitors and compounds from the different chemical clusters was tested. Cytotoxicity was determined using the ToxiLight bioassay kit according to the supplier's instructions. This nondestructive assay measures leakage of the enzyme adenylate kinase (AK) from damaged cells into the CHO‐SGLT1/2 inhibition assay media, ie the degree of cytolysis. […] Next, bioluminescence was measured using a FlexStation 3 Multi‐Mode Microplate Reader (Molecular Devices) by 1 second integrated reading. Cytotoxicity was expressed as the percentage of bioluminescence of the DMSO vehicle control which was set at 0%. If applicable, statistical outliers were determined using Grubbs’ test (alpha = 0.05) and excluded for calculation of the mean ± SD.

On to `CC(=O)OC[C@H]1O[C@@H](O[C@@H]2[C@@H](O)[C@H](O[C@@H]3[C@H](O)C(C)(C)C[C@H]4C5=CC[C@@H]6[C@@]7(C)CC[C@H](O[C@@H]8O[C@H](C(=O)O)[C@@H](O)[C@H](O)[C@H]8O[C@@H]8O[C@H](CO)[C@H](O)[C@H](O)[C@H]8O[C@@H]8O[C@H](CO)[C@@H](O)[C@H](O)[C@H]8O)[C@](C)(CO)[C@@H]7CC[C@@]6(C)[C@]5(C)CC[C@@]34C)OC[C@@H]2O)[C@H](OC(C)=O)[C@@H](OC(C)=O)[C@@H]1OC(C)=O` [Soyasaponin Ab], for which, on SGLT1 [1], the remaining activity at 5 µM was 104% and the remaining activity at 50 µM came to 104%. Also, on hSGLT2 [2], the remaining activity at 5 µM was found to be 106% and the remaining activity at 50 µM came out at 96.8%. In the data set on CHO‐hSGLT1/2 cells, this molecule came in with a CYTOTOXICITY of 5.

For `CC=C(C)C(=O)OC1c2c(ccc3ccc(=O)oc23)OC(C)(C)C1OC(C)=O` (stereo not drawn) [(+)‐pteryxin], the 50% inhibitory concentration (IC50) was 12 µM on SGLT1 [3] (1‐NBD‐glucose uptake, CHO‐hSGLT1, mean of n biological replicates, or individual measurements where n=2, read-out: SGLT1‐IC50 Mean) and 9 µM at hSGLT2 [4]. For the same molecule, on SGLT1 [3] (mean inhibition with 50 μmol/L inhibitor, read-out: SGLT1 inhibition), the inhibition at 50 µM turned out to be 89%. Also, the “Inhibition of 14C‐α‐methylglucose cellular uptake” value on SGLT1 [5] (Caco‐2, 50 μmol/L) was found to be 18%; at SGLT1 [5] (Caco‐2, 500 μmol/L), 91%. The “Inhibition of transcellular transport of 14C‐α‐methylglucose” value at SGLT1 [5] (Caco‐2, 50 μmol/L) was 37%; at SGLT1 [5] (Caco‐2, 500 μmol/L) it was 89%.
